From the supplement of paper PMC10307832

How the values were obtained:
Assay in all cases: relative viability (nuclei count vs DMSO), 5 days (fraction); higher = more cells survive
Dactolisib + Decitabine = compound: Cn1c(=O)n(-c2ccc(C(C)(C)C#N)cc2)c2c3cc(-c4cnc5ccccc5c4)ccc3ncc21 [Dactolisib] + Nc1ncn([C@H]2C[C@H](O)[C@@H](CO)O2)c(=O)n1 [Decitabine] (partner 2 µM)
Procedure, shortened: (§1)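 Medians of duplicate plates are given as relative viability. That measure is the nuclei count in treated wells divided by the count in vehicle wells. Counts were taken on 4× images of lung cancer cell lines in 1536-well plates, 5 days after pin-tool dosing the day after seeding with one drug alone or a fixed anchor-drug dose plus five library-drug doses (not always all listed) in √10 steps.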

AZ505 + Linsitinib = compound: C1CCC(CC1)N(CCNCCC2=C3C(=C(C=C2)O)NC(=O)CO3)C(=O)CCNCCC4=CC(=C(C=C4)Cl)Cl [AZ505] + C[C@]1(O)C[C@@H](c2nc(-c3ccc4ccc(-c5ccccc5)nc4c3)c3c(N)nccn32)C1 [Linsitinib] (partner 1 µM)
Procedure, shortened: as §1

Dactolisib + Palbociclib = compound: Cn1c(=O)n(-c2ccc(C(C)(C)C#N)cc2)c2c3cc(-c4cnc5ccccc5c4)ccc3ncc21 [Dactolisib] + CC(=O)c1c(C)c2cnc(Nc3ccc(N4CCNCC4)cn3)nc2n(C2CCCC2)c1=O [Palbociclib] (partner 0.5 µM)
Procedure, shortened: as §1

AZ505 + Crizotinib = compound: C1CCC(CC1)N(CCNCCC2=C3C(=C(C=C2)O)NC(=O)CO3)C(=O)CCNCCC4=CC(=C(C=C4)Cl)Cl [AZ505] + C[C@@H](Oc1cc(-c2cnn(C3CCNCC3)c2)cnc1N)c1c(Cl)ccc(F)c1Cl [Crizotinib] (partner 1 µM)
Procedure, shortened: as §1

Row | Cell Line | relative viability (Dactolisib + Decitabine; first compound 0.002 µM) | relative viability (Dactolisib + Decitabine; first compound 0.006325 µM) | relative viability (Dactolisib + Decitabine; first compound 0.02 µM) | relative viability (Dactolisib + Decitabine; first compound 0.06325 µM) | relative viability (Dactolisib + Decitabine; first compound 0.2 µM) | relative viability (AZ505 + Linsitinib; first compound 0.08 µM) | relative viability (AZ505 + Linsitinib; first compound 0.253 µM) | relative viability (AZ505 + Linsitinib; first compound 0.8 µM) | relative viability (AZ505 + Linsitinib; first compound 2.53 µM) | relative viability (AZ505 + Linsitinib; first compound 8 µM) | relative viability (Dactolisib + Palbociclib; first compound 0.002 µM) | relative viability (Dactolisib + Palbociclib; first compound 0.006325 µM) | relative viability (Dactolisib + Palbociclib; first compound 0.02 µM) | relative viability (Dactolisib + Palbociclib; first compound 0.06325 µM) | relative viability (Dactolisib + Palbociclib; first compound 0.2 µM) | relative viability (AZ505 + Crizotinib; first compound 0.08 µM) | relative viability (AZ505 + Crizotinib; first compound 0.253 µM) | relative viability (AZ505 + Crizotinib; first compound 0.8 µM) | relative viability (AZ505 + Crizotinib; first compound 2.53 µM) | relative viability (AZ505 + Crizotinib; first compound 8 µM)
1 | 201T | 0.87 | 0.864 | 0.808 | 0.706 | 0.477 | 1.03 | 0.98 | 0.993 | 1.01 | 0.968 | 0.363 | 0.356 | 0.334 | 0.279 | 0.267 | 0.986 | 1.03 | 0.932 | 1.01 | 1.02
2 | A549 | 0.34 | 0.292 | 0.248 | 0.204 | 0.12 | 0.452 | 0.503 | 0.622 | 0.565 | 0.562 | – | – | – | – | – | 0.661 | 0.849 | 0.692 | 0.776 | 0.608
3 | A-427 | 0.605 | 0.571 | 0.609 | 0.457 | 0.436 | 1.13 | 1.08 | 1.09 | 1.11 | 1.09 | 0.547 | 0.529 | 0.498 | 0.428 | 0.401 | 0.771 | 0.829 | 0.766 | 0.837 | 0.944
4 | ABC-1 | 1.22 | 1.02 | 1.13 | 0.999 | 0.827 | 0.636 | 0.889 | 0.935 | 0.901 | 0.697 | 0.651 | 0.48 | 0.514 | 0.514 | 0.481 | 1.01 | 1.12 | 1.19 | 1.21 | 1.24
5 | BEN | 0.802 | 0.692 | 0.63 | 0.518 | 0.41 | 0.735 | 1.1 | 0.904 | 0.891 | 1.12 | 0.479 | 0.477 | 0.473 | 0.458 | 0.426 | 0.789 | 0.889 | 0.854 | 0.816 | 1.07
6 | CAL-12T | – | – | – | – | – | 0.72 | 0.901 | 0.684 | 0.748 | 0.9 | 0.526 | 0.396 | 0.256 | 0.172 | 0.133 | 0.599 | 0.753 | 0.535 | 0.684 | 0.563
7 | COR-L23 | 0.605 | 0.445 | 0.32 | 0.23 | 0.182 | 0.684 | 0.772 | 0.749 | 0.855 | 0.692 | 0.327 | 0.282 | 0.228 | 0.135 | 0.0957 | 0.42 | 0.621 | 0.518 | 0.567 | 0.385
8 | COR-L 105 | 0.578 | 0.629 | 0.598 | 0.395 | 0.326 | 0.703 | 1.05 | 0.761 | 0.779 | 1.01 | 0.393 | 0.375 | 0.432 | 0.392 | 0.31 | 0.579 | 0.964 | 0.75 | 0.963 | 0.793
9 | Calu-6 | – | – | – | – | – | 0.872 | 0.929 | 0.851 | 0.92 | 0.956 | – | – | – | – | – | 0.735 | 0.806 | 0.785 | 0.589 | 0.748
10 | ChaGo-K-1 | 0.558 | 0.541 | 0.51 | 0.527 | 0.501 | – | – | – | – | – | 0.93 | 0.958 | 0.88 | 0.84 | 0.85 | 1.17 | 1.04 | 1.12 | 0.958 | 1.15
11 | EBC-1 | – | – | – | – | – | 0.87 | 0.833 | 1.01 | 0.841 | 0.896 | – | – | – | – | – | 0.21 | 0.198 | 0.178 | 0.203 | 0.184
12 | EKVX | 0.343 | 0.313 | 0.284 | 0.272 | 0.22 | 0.963 | 1.15 | 0.951 | 1.04 | 1.06 | 0.431 | 0.386 | 0.324 | 0.241 | 0.197 | 0.777 | 1.05 | 0.926 | 0.798 | 1.02
13 | EMC-BAC-2 | 1.01 | 0.861 | 0.888 | 0.54 | 0.551 | 0.767 | 0.834 | 0.813 | 0.822 | 0.879 | 0.563 | 0.486 | 0.461 | 0.324 | 0.29 | 0.791 | 0.911 | 0.698 | 0.735 | 0.761
14 | EPLC-272H | 0.36 | 0.364 | 0.317 | 0.281 | 0.23 | 0.922 | 1.14 | 1.04 | 1.34 | 1.33 | 0.331 | 0.299 | 0.341 | 0.317 | 0.287 | 0.714 | 0.865 | 0.927 | 0.985 | 0.934
15 | H3255 | 0.671 | 0.614 | 0.559 | 0.511 | 0.415 | 0.836 | 1 | 0.918 | 0.983 | 0.929 | 0.332 | 0.305 | 0.321 | 0.313 | 0.314 | 0.702 | 0.854 | 0.904 | 0.913 | 0.918
16 | HARA | 0.708 | 0.558 | 0.634 | 0.623 | 0.356 | 0.897 | 0.894 | 0.695 | 0.737 | 0.773 | 0.304 | 0.233 | 0.301 | 0.233 | 0.188 | 0.954 | 0.89 | 0.896 | 0.909 | 0.948
17 | HCC-15 | 0.626 | 0.599 | 0.617 | 0.33 | 0.208 | 0.877 | 0.909 | 0.842 | 0.837 | 0.919 | 0.778 | 0.723 | 0.715 | 0.471 | 0.28 | 0.791 | 0.908 | 0.772 | 0.844 | 0.823
18 | HCC-44 | 1.04 | 0.976 | 0.937 | 0.944 | 0.878 | 0.671 | 0.691 | 0.619 | 0.654 | 0.663 | 1.04 | 1.02 | 1.01 | 0.99 | 0.919 | 0.748 | 0.772 | 0.804 | 0.773 | 0.791
